# Data from patent publication US8288541B2, “Piperazine amide derivatives” (Hoffmann-La Roche Inc., priority 2007, dated 2012).
# Key:
# LXR alpha = biological target: T1, LXR alpha (Homo sapiens, UniProt Q13133); assay: Radioligand binding assay (SPA), LXR alpha LBD; settings: LXRα-LBD, read-out: LXRalpha Binding IC50
# T1 construct: human LXR alpha (aa 164 to 447); unnamed tag ('tagged versions'); made in house; host or cells: E. coli BL21 (pLysS)
# T1 sequence (Q13133 164-447): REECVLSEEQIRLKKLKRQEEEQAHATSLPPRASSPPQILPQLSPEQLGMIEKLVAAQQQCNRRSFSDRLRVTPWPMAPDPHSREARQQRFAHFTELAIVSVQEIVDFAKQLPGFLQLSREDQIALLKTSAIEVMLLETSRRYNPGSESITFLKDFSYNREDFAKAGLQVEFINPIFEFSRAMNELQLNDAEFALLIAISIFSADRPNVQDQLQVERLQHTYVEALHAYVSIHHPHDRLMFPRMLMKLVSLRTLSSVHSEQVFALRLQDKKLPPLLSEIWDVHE
# Description: (§1) The following tests were carried out in order to determine the activity of the compounds of the present invention. Background information on the performed assays can be found in: Nichols J S et al. “Development of a scintillation proximity assay for peroxisome proliferator-activated receptor gamma ligand binding domain”, Anal Biochem. 1998, 257: 112-119.
# (§2) Mammalian expression vectors were constructed to express full-length human LXR alpha and LXR beta. Bacterial expression vectors were constructed to produce tagged versions of the ligand binding domains (LBD) of human LXR alpha (aa 164 to 447) and human LXR beta (aa 155 to 460). To accomplish this, the portions of the sequences encoding the LBDs were amplified from the full-length clones by PCR and then subcloned into the plasmid vectors. Final clones were verified by DNA sequence analysis (Willy et al., Genes Dev. 1995, 9:1033-45; Song et al., Proc Natl Acad Sci USA. 1994, 91:10809-13).
# (§3) Induction, expression, and purification of LBD proteins were performed in E. coli strain BL21 (pLysS) cells by standard methods (Ref: Current Protocols in Molecular Biology, Wiley Press, edited by Ausubel et al).
# (§4) Radioligand Binding Assay
# (§5) LXR alpha and LXR beta receptor binding were assayed in buffer consisting of 50 mM HEPES, pH 7.4, 10 mM NaCl, 5 mM MgCl2. For each 96-well reaction, 500 ng of LXRα-LBD or 700 ng of LXR beta-LBD proteins were bound to 80 μg or 40 μg SPA beads respectively, in a final volume of 50 μl by shaking. The resulting slurry was incubated for 1 h at RT and centrifuged for 2 min at 1300×g. The supernatant containing unbound protein was removed, and the semi-dry pellet containing the receptor-coated beads was re-suspended in 50 μl of buffer. […] All binding assays were performed in 96-well plates and the amount of bound ligand was measured on a Packard TopCount using OptiPlates (Packard). Dose response curves were measured within a range of concentration from 10^−10 M to 10^−4 M.
# LXR beta = biological target: T2, LXR beta (Homo sapiens, UniProt P55055); assay: Radioligand binding assay (SPA), LXR beta LBD; settings: read-out: LXRbeta Binding IC50
# T2 construct: human LXR beta (aa 155 to 460); unnamed tag ('tagged versions'); made in house; host or cells: E. coli BL21 (pLysS)
# T2 sequence (P55055 155-460): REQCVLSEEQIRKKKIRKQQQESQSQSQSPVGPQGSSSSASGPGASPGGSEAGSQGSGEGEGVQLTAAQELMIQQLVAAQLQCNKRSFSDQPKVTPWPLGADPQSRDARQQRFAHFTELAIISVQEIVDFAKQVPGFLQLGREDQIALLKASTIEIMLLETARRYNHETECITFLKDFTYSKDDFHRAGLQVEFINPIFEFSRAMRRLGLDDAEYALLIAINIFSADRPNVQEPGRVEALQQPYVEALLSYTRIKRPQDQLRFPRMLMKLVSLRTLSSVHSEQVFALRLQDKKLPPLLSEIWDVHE
# Description: as §1, §2, §3, §4, §5
IC50 (LXR alpha),IC50 (LXR beta),melting point,SMILES
15.6 µM,2.8 µM,,"Cc1ccc(Cl)cc1N1CCN(C(=O)[C@@H]2CN(S(C)(=O)=O)CC[C@@H]2c2ccc(F)cc2F)CC1 (single isomer, unassigned) [Example 87, [4-(5-Chloro-2-methyl-phenyl)-piperazin-1-yl]-[(3S,4S) or (3R,4R)-4-(2,4-difluoro-phenyl)-1-methanesulfonyl-piperidin-3-yl]-methanone]"
4.1 µM,0.77 µM,,"COc1cccc(S(=O)(=O)N2CCN(c3ccccc3)C(C(=O)N3CCN(c4cc(C)ccc4C)CC3)C2)c1 (stereo not shown) [Example 8, [4-(2,5-Dimethyl-phenyl)-piperazin-1-yl]-[4-(3-methoxy-benzenesulfonyl)-1-phenyl-piperazin-2-yl]-methanone]"
18 µM,0.72 µM,,"Cc1cc(F)ccc1N1CCN(S(=O)(=O)c2cccc(Cl)c2)CC1C(=O)N1CCN(c2cc(Cl)ccc2Cl)CC1 (stereo not shown) [Example 4, [4-(3-Chloro-benzenesulfonyl)-1-(4-fluoro-2-methyl-phenyl)-piperazin-2-yl]-[4-(2,5-dichloro-phenyl)-piperazin-1-yl]-methanone]"
,,192 °C,"COc1cccc(S(=O)(=O)N2CC[C@H](c3ccccc3)[C@H](C(=O)N3CCN(c4cc(C)ccc4C)CC3)C2)c1 (relative stereo) [Example 42, Cis-[4-(2,5-Dimethyl-phenyl)-piperazin-1-yl]-[-1-(3-methoxy-benzenesulfonyl)-4-phenyl-piperidin-3-yl]-methanone]"
